# How the values were obtained:
# HN-13-0014 xenograft = HN-13-0014 xenograft model, Compound 1 and radiation; type: in vivo, mice
# Excerpt: (§1) The HN-13-0014 xenograft model is a human head and neck primary tumor model. Approximately nine week old female BALB/c nude (Shanghai Sino-British SIPPR/BK Laboratory Animal Co., LTD.) mice were implanted subcutaneously with approximate 30 mm^3 HN-13-0014 tumor slices in the right flank. When the mean tumor volume reached approximately 162 mm^3, the animals were randomized into 10 treatment groups (n=8/group).
# Compound 1 [((1R,2R,3S,4R)-2,3-dihydroxy-4-(2-(3-(trifluoromethylthio) ? phenyl)pyrazolo[1,5-a]pyrimidin-7-ylamino)cyclopentyl)methyl sulfamate] is formulated in 10% HPbCD in sterile water and administered intravenously on a BIW (twice/week schedule; Monday and Thursday, i.e. days 0, 3, 7, 10, 14, 17) for 3 weeks in the HN-13-0014 and LU-01-0030 (first study) models. Compound 1 formulation was prepared weekly and stored at room temperature in the dark.
# (§2) Beam-focused radiation was delivered using a either 1 or 2 Gray dosed on days 0, 1, 7, and 8 or on days 0, 3, 7, and 10 in the HN-13-0014 and LU-01-0030 (first study) models. A Rad Source RS-2000 X-ray irradiator was used for therapy (Rad Source). Before radiation, animals were anesthetized by i.p. injection using 1.0% sodium pentobarbital at 80 mg/kg (Vendor: Sigma). Focused radiation was applied to each mouse at 1 Gy/min.
# (§3) Tumors were measured twice weekly using vernier calipers. Tumor volumes were calculated using the following formula: (0.5×[length×width^2]). Treatment groups and dosing/treatment schedules are indicated in Tables 1a, 2a, 3a, 4a, and 5a below. Tumor size and body weight are measured approximately twice a week for the duration of the study. Mice are euthanized when their tumor volume reached approximately 1000 mm^3. Tumor growth continued to be monitored after the dosing period in some studies. In Tables 1a, 2a, 3a, 4a, and 5a tumor volumes are shown for HN-13-0014 (day 21), LU-01-0030 (day 21), the second LU-01-0030 study (day 20), LU-01-0266 (day 20), ST-02-0004 (day 21) and FIN-13-0007 (day 24), respectively. Average tumor volume is reported as a function of time for selected groups of selected studies.
# (§4) Measurements from day 0 to day 20, day 21 or day 24 are analyzed as specified in Tables below. All tumor volumes have a value of 1 added to them before log10 transformation. For each animal, the log tumor volume at day 0 is subtracted from the log tumor volume on the subsequent days. This difference vs. time is used to calculate an area under the curve (AUC) for each animal using the trapezoid rule. In instances when an animal in a treatment group is removed early from the study, the last observed tumor value is carried forward through all subsequent time points. The synergy score for the combination of agents A and B is defined as 100*(mean(AUCAB)−mean(AUCA)−mean(AUCB)+mean(AUCctl))/mean(AUCctl): where AUCAB, AUCA, AUCB, and AUCctl are the AUC values for animals in the combination group, the A group, the B group, and the control group, respectively. The standard error of the synergy score is computed based on the variation in the AUC values among the animals. […] If the P-value is above 0.05, then the combination is considered to be additive. If the P-value is below 0.05, and the synergy score is less than zero, then the combination is considered to be synergistic. If the P-value is below 0.05 and the synergy score was greater than zero, but the mean AUC for the combination was lower than the lowest mean AUC among the two single agent treatments, then the combination was sub-additive. If the P-value is below 0.05 and if the synergy score was greater than zero, and the mean AUC for the combination was greater than the mean AUC for at least one of the single agent treatments, then the combination was antagonistic.
# HN-13-0007 xenograft = HN-13-0007 xenograft model, Compound 1 and radiation; type: in vivo, mice; conditions: for Classification / Synergy score: through Day 24
# Excerpt: as §1, with “HN-13-0007” for “HN-13-0014”, “human primary” for “human”, “[…] cancer” for “primary tumor”, “130” for “162”
# Compound 1 [((1R,2R,3S,4R)-2,3-dihydroxy-4-(2-(3-(trifluoromethylthio) ? phenyl)pyrazolo[1,5-a]pyrimidin-7-ylamino)cyclopentyl)methyl sulfamate] is formulated in 10% HPbCD in sterile water and administered intravenously on days 0, 3, 7, 10, 14, 17 in the LU-01-0266 and HN-13-0007 models and on days 0, 3, 8, 11, 15, 18 in the ST-02-0004 model and in the second study with the LU-01-0030 model. Compound 1 formulation was prepared weekly and stored at room temperature in the dark.
# as §2, with “using” for “using a either 1 or”, “LU-01-0266” for “HN-13-0014”, “HN-13-0007” for “LU-01-0030 (first study)”, “models. In the ST-02-0004 model 2 Gray of radiation was delivered on days 0, 1, 3, and 8.” for “models.”
# as §3, §4
# [1] = 6.25 mg/kg Compound 1 + 2 Gy Radiation D0, 1, 7, 8
# [2] = 6.25 mg/kg Compound 1 + 2 Gy Radiation D0, 3, 7, 10
# [3] = 6.25 mg/kg Compound 1 IV BIWx3 + 2 Gy Radiation Beam D 0, 1, 7, 8
# [4] = 6.25 mg/kg Compound 1 IV BIWx3 + 2 Gy Radiation Beam D 0, 3, 7, 10
# [5] = 15 mg/kg Compound 1 + 2 Gy Radiation D0, 1, 7, 8
# [6] = 15 mg/kg Compound 1 + 2 Gy Radiation D0, 3, 7, 10
# [7] = 15 mg/kg Compound 1 IV BIWx3 + 2 Gy Radiation Beam D 0, 1, 7, 8
# [8] = 15 mg/kg Compound 1 IV BIWx3 + 2 Gy Radiation Beam D 0, 3, 7, 10
smiles,measurement,setting,value
"NS(=O)(=O)OC[C@H]1C[C@@H](Nc2ccnc3cc(-c4cccc(SC(F)(F)F)c4)nn23)[C@H](O)[C@@H]1O [Compound 1, ((1R,2R,3S,4R)-2,3-dihydroxy-4-(2-(3-(trifluoromethylthio)phenyl)pyrazolo[1,5-a]pyrimidin-7-ylamino)cyclopentyl)methyl sulfamate]",Classification,HN-13-0014 xenograft; [1],"Additive (If the P-value is above 0.05, then the combination is considered to be additive)"
same,Synergy score,HN-13-0014 xenograft; [1],8.6
same,Classification,HN-13-0014 xenograft; [2],"Additive (If the P-value is above 0.05, then the combination is considered to be additive)"
same,Synergy score,HN-13-0014 xenograft; [2],7.7
same,Tumor Volume Day 21,HN-13-0014 xenograft; [3],392.7 mm^3
same,Tumor Volume Day 21,HN-13-0014 xenograft; [4],381.9 mm^3
same,Tumor Volume Day 21,"HN-13-0014 xenograft; 6.25 mg/kg Compound 1 IV BIWx3, single agent",575.9 mm^3
same,Classification,HN-13-0014 xenograft; [5],"Additive (If the P-value is above 0.05, then the combination is considered to be additive)"
same,Synergy score,HN-13-0014 xenograft; [5],7.9
same,Classification,HN-13-0014 xenograft; [6],"Additive (If the P-value is above 0.05, then the combination is considered to be additive)"
same,Synergy score,HN-13-0014 xenograft; [6],3.2
same,Tumor Volume Day 21,HN-13-0014 xenograft; [7],372.4 mm^3
same,Tumor Volume Day 21,HN-13-0014 xenograft; [8],356.2 mm^3
same,Tumor Volume Day 21,"HN-13-0014 xenograft; 15 mg/kg Compound 1 IV BIWx3, single agent",539.9 mm^3
same,combination effect,HN-13-0014 xenograft; Compound 1 with 2 Gy radiation,additive combination effect
same,anti-tumor activity compared to vehicle control,"HN-13-0014 xenograft; single agent, IV at 6.25 and 15 mg/kg BIW for 3 weeks",modest anti-tumor activity
same,Tumor Volume Day 24,HN-13-0007 xenograft; [3],318.8 mm^3
same,Tumor Volume Day 24,HN-13-0007 xenograft; [4],340 mm^3
same,Tumor Volume Day 24,"HN-13-0007 xenograft; 6.25 mg/kg Compound 1 IV BIWx3 = D 0, 3, 7, 10, 14, 17, single agent",442.4 mm^3
same,Tumor Volume Day 24,HN-13-0007 xenograft; [7],358.3 mm^3
same,Tumor Volume Day 24,HN-13-0007 xenograft; [8],299.7 mm^3
same,Tumor Volume Day 24,"HN-13-0007 xenograft; 15 mg/kg Compound 1 IV BIWx3 = D 0, 3, 7, 10, 14, 17, single agent",362.1 mm^3
same,"tumor growth inhibition, single agent",HN-13-0007 xenograft; Compound 1 at 15 mg/kg as single agent,minimal tumor growth inhibition
same,combination effect,HN-13-0007 xenograft; Compound 1 with 2 Gy radiation,additive combination effect
same,anti-tumor activity compared to the vehicle control,"HN-13-0007 xenograft; single agent, IV at 6.25 mg/kg for 3 weeks on Days 0, 3, 7, 10, 14, 17",no anti-tumor activity
same,Classification,HN-13-0007 xenograft; [1],"Additive (If the P-value is above 0.05, then the combination is considered to be additive)"
same,Synergy score,HN-13-0007 xenograft; [1],−20
same,Classification,HN-13-0007 xenograft; [2],"Additive (If the P-value is above 0.05, then the combination is considered to be additive)"
same,Synergy score,HN-13-0007 xenograft; [2],−24
same,Classification,HN-13-0007 xenograft; [5],"Additive (If the P-value is above 0.05, then the combination is considered to be additive)"
same,Synergy score,HN-13-0007 xenograft; [5],24
same,Classification,HN-13-0007 xenograft; [6],"Additive (If the P-value is above 0.05, then the combination is considered to be additive)"
same,Synergy score,HN-13-0007 xenograft; [6],−13
